Legend:
IDH1 mutant (R132H) = biological target: T1, IDH1 mutant (R132H) (Homo sapiens, UniProt O75874, R132H); assay: Mutant IDH1-R132H Fluorescence Assay (Resazurin based); assay type: biochemical; settings: 10 nM IDH1 R132H, 4 mM α-ketoglutarate, NADPH, 1.5 h at room temperature
T1 construct: purchased BPS Bioscience 71099-2
In short: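 Recombinant IDH1 R132H (10 nM) was run with α-ketoglutarate (4 mM) and NADPH ([…]) for 1.5 h at room temperature in Tris pH buffer with MgCl2, BSA and mercaptoethanol. Remaining NADPH was detected via diaphorase/resazurin fluorescence (ex 540/em 590 nm). IC50 came from a 4-parameter logistic fit.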

IDH1-WT = biological target: T2, IDH1-WT (Homo sapiens, UniProt O75874); assay: IDH1-WT Fluorescence Assay (Resazurin based); assay type: biochemical; settings: 1 nM IDH1-WT, 200 μM isocitrate, 15 μM NADP+, 30 min at room temperature
T2 construct: purchased BPS Bioscience 71075-2
T2 sequence (O75874 whole entry): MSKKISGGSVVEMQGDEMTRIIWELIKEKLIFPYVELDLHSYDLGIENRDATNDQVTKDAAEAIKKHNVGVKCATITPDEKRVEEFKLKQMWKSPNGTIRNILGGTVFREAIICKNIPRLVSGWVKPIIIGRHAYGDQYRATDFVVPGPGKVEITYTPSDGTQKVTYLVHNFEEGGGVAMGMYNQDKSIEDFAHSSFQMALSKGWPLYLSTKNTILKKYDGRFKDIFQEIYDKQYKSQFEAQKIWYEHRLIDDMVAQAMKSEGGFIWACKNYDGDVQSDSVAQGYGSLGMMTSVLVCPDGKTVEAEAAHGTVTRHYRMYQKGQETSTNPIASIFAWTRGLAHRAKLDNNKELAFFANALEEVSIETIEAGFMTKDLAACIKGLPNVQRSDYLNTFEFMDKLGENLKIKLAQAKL
Procedure: IC50 values of compounds against IDH1-WT was determined by Resazurin based Fluorescence assay. Assays were performed in Buffer (50 mM Tris HCl, 10 mM MgCl2, 0.03% BSA, 2 mM ß-mercaptoethanol) where total reaction volume was 25 μL in low-volume 96-well plates. Serially diluted compounds (3-fold) in DMSO (0.5% in final reaction) were incubated with cocktail of isocitrate (200 μM; Cat # I1252-1G, Sigma), NADP^+ (15 μM; Cat # N0505-500MG, Sigma) and buffer for 5 min, following addition of IDH1-WT enzyme (1 nM; Cat #71075-2, BPS Bioscience) and incubated in dark at room temperature for 30 min. After that, 12.5 μL detection solution containing Resazurin (60 μM; Cat #62758-13-8, Sigma) and Diaphorase (40 μg/ml; Cat # D2197-300UN, Sigma) in buffer was added and incubated for 15 min. Readings were taken using a Synergy Neo Plate reader (BioTek, Winooski) at single excitation of 540 nm and emission at 590 nm respectively.
The % (percent) activity of test samples was calculated as (Sample−Min)×100/(Max−Min). [Max: DMSO control, complete reaction with enzyme with DMSO and Min: No enzyme with DMSO]. Percent inhibition (100−% activity) was fitted to the “four-parameter logistic model” in XLfit for determination of IC50 values.

IDH2 mutant (R140Q) = biological target: T3, IDH2 mutant (R140Q) (Homo sapiens, UniProt P48735, R140Q); assay: Mutant IDH2-R140Q Fluorescence Assay (Resazurin based); assay type: biochemical; settings: 5 nM IDH2 R140Q, 4 hr pre-incubation, 1 mM α-ketoglutarate, 5 μM NADPH, 2 h
T3 construct: purchased BPS Bioscience 71100-2
T3 sequence (P48735 40-452 R140Q): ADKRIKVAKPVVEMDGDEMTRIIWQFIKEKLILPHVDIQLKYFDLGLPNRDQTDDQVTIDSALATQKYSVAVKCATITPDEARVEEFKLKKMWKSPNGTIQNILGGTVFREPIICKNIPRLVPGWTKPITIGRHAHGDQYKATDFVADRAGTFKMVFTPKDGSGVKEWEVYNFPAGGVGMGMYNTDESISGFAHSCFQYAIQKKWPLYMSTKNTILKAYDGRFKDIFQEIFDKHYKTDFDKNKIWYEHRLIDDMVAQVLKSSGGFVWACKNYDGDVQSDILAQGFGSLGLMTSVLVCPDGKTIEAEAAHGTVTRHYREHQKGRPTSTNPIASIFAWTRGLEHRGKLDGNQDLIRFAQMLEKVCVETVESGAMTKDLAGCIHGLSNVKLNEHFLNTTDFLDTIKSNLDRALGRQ
Procedure: IC50 values of compounds against IDH2 mutant (R140Q) were determined by Resazurin based Fluorescence assay. Assay was performed in Buffer (25 mM Tris HCl, 150 mM NaCl, 10 mM MgCl2, 0.03% BSA, 2 mM 1-mercaptoethanol) where total reaction volume was 12.5 μL in low-volume 384-well plates (Cat #4511, Corning). Serially diluted compounds (3-fold) were pre-incubated with IDH2 R140Q mutant enzyme (5 nM; Cat #71100-2, BPS Bioscience) for 4 hr at RT (25° C.) followed by addition of cocktail of α-ketoglutarate (1 mM; Cat #75892-25G, Sigma), and NADPH (5 μM; Cat # N1630-100MG, Sigma) with buffer in dark at room temperature for 2 h. After 2 h incubation, 6.25 μL detection solution containing Resazurin (30 μM; (Cat #62758-13-8, Sigma) and Diaphorase (40 ug/ml; Cat # D2197-300UN, Sigma) in buffer was added and incubated for 15 min. Readings were taken in a Synergy Neo Plate reader (BioTek, Winooski) at single excitation of 540 nm and emission at 590 nm respectively.
(§1) The % activity of test samples was calculated as (Sample−Min)×100/(Max−Min). [Max: DMSO control, complete reaction with enzyme with DMSO and Min: No enzyme with DMSO]. Percent inhibition (100−% activity) was fitted to the “four-parameter logistic model” in XLfit for determination of IC50 values.

[1] = biological target: T4, mutant IDH1 (R132C) HT1080 cells (Homo sapiens, UniProt O75874, R132C); assay: Cellular 2-HG assay using mutant IDH1 (R132C) HT1080 cells; assay type: cell-based; settings: 48 h treatment, 0.003 to 3 μM, 2-HG in cell culture media
T4 construct: host or cells: HT1080
T4 sequence (O75874 2-414 R132C limits assumed): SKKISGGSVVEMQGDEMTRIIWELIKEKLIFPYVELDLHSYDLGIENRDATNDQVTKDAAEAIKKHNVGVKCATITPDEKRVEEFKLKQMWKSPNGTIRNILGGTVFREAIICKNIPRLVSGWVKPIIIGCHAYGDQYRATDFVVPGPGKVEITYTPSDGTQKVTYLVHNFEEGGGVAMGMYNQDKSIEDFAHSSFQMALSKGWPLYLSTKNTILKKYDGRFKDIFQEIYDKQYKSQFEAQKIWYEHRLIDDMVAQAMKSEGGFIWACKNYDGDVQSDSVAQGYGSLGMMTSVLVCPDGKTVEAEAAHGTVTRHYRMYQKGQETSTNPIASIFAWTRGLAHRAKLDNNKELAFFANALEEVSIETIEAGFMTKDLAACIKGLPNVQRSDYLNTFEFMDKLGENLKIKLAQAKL
Procedure: HT1080 (ATCC® CCL-121™) cells were plated in a 12 well plate (Nunc™ Cell-Culture Treated Multidish; Cat #150628) at a cell density of 5×10^4 cells/well. Cells were then treated with various concentrations of test/reference compounds (ranging from 0.003 to 3 μM) or vehicle for 48 h under cell culture conditions (in CO2 incubator, 5% CO2, 37° C.). Metabolites were extracted from cell culture media by precipitation method and IC50 values of compounds were determined by Resazurin based Fluorescence assay. Assay buffer contained 100 mM HEPES pH 8.0, 100 μM NAD^+ (Sigma; Cat # N1630-100MG), […] HGDH, 5 μM resazurin (Cat #62758-13-8, Sigma) and 0.01 U/ml diaphorase (Cat # D2197-300UN, Sigma). Total assay volume was 100 μl. 75 μl of assay buffer was added to 25 μl sample volume (supernatant) and incubated at RT in the dark for 30 min in black 96-well plates (Thermo Scientific). Fluorometric detection was done using a Synergy Neo Plate reader (BioTek, Winooski) at single excitation of 540 nm and emission at 590 nm respectively).
as §1

T1 sequence (O75874 whole entry R132H): as the sequence (O75874 whole entry) above, with R132H counted along it

IC50 (IDH1 mutant (R132H)) | IC50 (IDH1-WT) | IC50 (IDH2 mutant (R140Q)) | IC50 [1] | SMILES
144 nM | > 50000 nM | > 50000 nM | 634 nM | CC[C@H]1COC(=O)N1c1nc(C)nc(N[C@@H](C)c2cc3cc(Cl)ccc3[nH]c2=O)n1 [Compound 1.38, (S)-3-(4-((S)-1-(6-chloro-2-oxo-1,2-dihydroquinolin-3-yl)ethylamino)-6-methyl-1,3,5-triazin-2-yl)-4-ethyloxazolidin-2-one]
209 nM | > 50000 nM | > 50000 nM | 168 nM | CC[C@H]1COC(=O)N1c1nc(C)nc(N[C@@H](C)c2ccc(Oc3ccccc3)cc2)n1 [Compound 1.44, (S)-4-ethyl-3-(4-methyl-6-((S)-1-(4-phenoxyphenyl)ethylamino)-1,3,5-triazin-2-yl)oxazolidin-2-one]
227 nM | > 50000 nM | > 50000 nM | 36 nM | Cc1nc(N[C@@H](C)c2ccc(Oc3ccccc3)cc2)nc(N2C(=O)OC[C@@H]2[C@H](C)F)n1 [Compound 1.64, (R)-4-((S)-1-fluoroethyl)-3-(4-methyl-6-((S)-1-(4-phenoxyphenyl)ethylamino)-1,3,5-triazin-2-yl)oxazolidin-2-one]
75 nM | > 50000 nM | > 50000 nM | 94 nM | CC[C@H]1COC(=O)N1c1nc(C)nc(N[C@@H](C)c2cc3cc(Cl)c(OC(C)C)cc3[nH]c2=O)n1 [Compound 1.104, (S)-3-(4-((S)-1-(6-chloro-7-isopropoxy-2-oxo-1,2-dihydroquinolin-3-yl)ethylamino)-6-methyl-1,3,5-triazin-2-yl)-4-ethyloxazolidin-2-one]
178 nM | > 50000 nM | > 50000 nM | 271 nM | Cc1nc(N[C@@H](C)c2cc3cc(Cl)ccc3[nH]c2=O)nc(N2C(=O)OC[C@@H]2[C@H](C)F)n1 [Compound 1.59, (R)-3-(4-((S)-1-(6-chloro-2-oxo-1,2-dihydroquinolin-3-yl)ethylamino)-6-methyl-1,3,5-triazin-2-yl)-4-((S)-1-fluoroethyl) oxazolidin-2-one]
84 nM | > 50000 nM | > 50000 nM | 556 nM | CC[C@H]1COC(=O)N1c1nc(C)nc(N[C@@H](C)c2cc3cc(Cl)c(OC)cc3[nH]c2=O)n1 [Compound 1.42, (S)-3-(4-((S)-1-(6-chloro-7-methoxy-2-oxo-1,2-dihydroquinolin-3-yl)ethylamino)-6-methyl-1,3,5-triazin-2-yl)-4-ethyloxazolidin-2-one]
1400 nM | > 50000 nM | > 50000 nM | – | Cc1cc([C@H](C)Nc2ncnc(N3C(=O)OC[C@@H]3C(C)C)n2)ncc1-c1ccnc(C(F)(F)F)c1 [Compound 1.21, (S)-4-isopropyl-3-(4-((S)-1-(4-methyl-2′-(trifluoromethyl)-3,4′-bipyridin-6-yl)ethylamino)-1,3,5-triazin-2-yl)oxazolidin-2-one]
492 nM | > 50000 nM | > 50000 nM | – | CC[C@H]1COC(=O)N1c1ncnc(N[C@@H](C)c2ccc(Oc3ccccc3)cc2)n1 [Compound 1.29, (S)-4-ethyl-3-(4-((S)-1-(4-phenoxyphenyl)ethylamino)-1,3,5-triazin-2-yl)oxazolidin-2-one]
308 nM | > 50000 nM | > 50000 nM | – | CC[C@H]1COC(=O)N1c1nc(C)nc(N[C@@H](C)c2ccc(Oc3ccc(F)cc3)cc2)n1 [Compound 1.58, (S)-4-ethyl-3-(4-((S)-1-(4-(4-fluorophenoxy)phenyl)ethylamino)-6-methyl-1,3,5-triazin-2-yl)oxazolidin-2-one]
2760 nM | > 30000 nM | > 50000 nM | – | CC(C)[C@H]1COC(=O)N1c1ncnc(N[C@@H](C)c2ccc(-c3ccc(Cl)cc3)cn2)n1 [Compound 1.10, (S)-3-(4-((S)-1-(5-(4-chlorophenyl)pyridin-2-yl)ethylamino)-1,3,5-triazin-2-yl)-4-isopropyloxazolidin-2-one]
2870 nM | > 30000 nM | > 50000 nM | – | CC(C)[C@H]1COC(=O)N1c1ncnc(N[C@@H](C)c2ccc(Cl)c(Cl)c2)n1 [Compound 1.7, (S)-3-(4-((S)-1-(3,4-dichlorophenyl)ethylamino)-1,3,5-triazin-2-yl)-4-isopropyloxazolidin-2-one]
456 nM | > 50000 nM | > 50000 nM | 413 nM | CC[C@H]1COC(=O)N1c1nc(C)nc(N[C@@H](C)c2cn(-c3ccc(Cl)cc3)cn2)n1 [Compound 1.50, (S)-3-(4-((S)-1-(1-(4-chlorophenyl)-1H-imidazol-4-yl)ethylamino)-6-methyl-1,3,5-triazin-2-yl)-4-ethyloxazolidin-2-one]
2770 nM | > 50000 nM | > 50000 nM | – | Cc1cc(-c2cnc([C@H](C)Nc3ncnc(N4C(=O)OC[C@@H]4C(C)C)n3)nc2)ccc1F [Compound 1.1, (S)-3-(4-((S)-1-(5-(4-fluoro-3-methylphenyl)pyrimidin-2-yl)ethylamino)-1,3,5-triazin-2-yl)-4-isopropyloxazolidin-2-one]
414 nM | > 50000 nM | > 50000 nM | – | CC[C@H]1COC(=O)N1c1nc(C)nc(N[C@@H](C)c2ccc(Oc3ccccc3)c(-c3ccccc3)c2)n1 [Compound 1.82, (S)-4-ethyl-3-(4-methyl-6-((S)-1-(6-phenoxybiphenyl-3-yl)ethylamino)-1,3,5-triazin-2-yl)oxazolidin-2-one]
660 nM | > 50000 nM | > 50000 nM | – | CC[C@H]1COC(=O)N1c1nc(C)nc(N[C@H](C)c2cc3cc(Cl)c(OC(C)C)cc3[nH]c2=O)n1 [Compound 1.105, (S)-3-(4-((R)-1-(6-chloro-7-isopropoxy-2-oxo-1,2-dihydroquinolin-3-yl)ethylamino)-6-methyl-1,3,5-triazin-2-yl)-4-ethyloxazolidin-2-one]

— patent US20200206233A1 (INTEGRAL BIOSCIENCES PRIVATE LIMITED, priority 2018, published 2020)
